Reference: article PMC8264504, “Identification of Koumine as a Translocator Protein 18 kDa Positive Allosteric Modulator for the Treatment of Inflammatory and Neuropathic Pain” (Frontiers in Pharmacology, 2021)
Read-outs that look alike come from different tables or passages of the source.

Experiments:
[1] = molecular target: T1, mouse TSPO recombinant protein (TSPO proteoliposomes) (Mus musculus, UniProt P50637); experiment: SPR single-cycle kinetics on TSPO proteoliposomes; format: binding
T1 construct: His tag; made in house; host or cells: Escherichia coli BL21(DE3) pLysS, pET15b vector
Protocol: (§1) Cells of the BL21(DE3) pLysS Escherichia coli strain were transformed with the pET15b vector, from which the expression of mouse TSPO recombinant protein was induced by 1 mM isopropyl-1-thiol-β-D-galactopyranoside as previously described ([Robert and Lacapère, 2010]; [Senicourt et al., 2017]). Cells were harvested and resuspended in lysis buffer (150 mM NaCl and 50 mM HEPES-Na, pH 7.8) with the addition of 1 mg/ml lysozyme and sonicated thoroughly. The lysate was centrifuged at 15,000 g at 4°C for 20 min to pellet the insoluble inclusion bodies. The final pellet of inclusion bodies was solubilized in binding buffer (150 mM NaCl, 50 mM HEPES-Na, 1% SDS (wt/vol), pH 7.8) and was purified by the Ni-NTA gravity flow column.
Proteoliposomes composed of DMPC/DMPE (9:1) and TSPO in a 5:1 (wt/wt) ratio were prepared using a previously described method ([Ostuni et al., 2010]). Liposomes composed of DMPC/DMPE (9:1) were prepared as published previously ([Hatty et al., 2014]). A few milligrams of DMPC and DMPE were weighed into a round-bottom glass flask, and chloroform and methanol were added to dissolve them. A thin lipid film was prepared by a rotary evaporator and dried under vacuum for at least 3 h to remove all traces of chloroform and methanol. The dry lipid film was resuspended in PBS buffer (10 mM phosphate buffer, 2.7 mM KCl, 137 mM NaCl) to a concentration of 1 mg/ml, hydrated for 2 h at 45–55°C, and finally sonicated to produce small unilamellar vesicles. The suspension of small unilamellar vesicles was then kept at 45°C for use on the same day. The sizes of proteoliposomes and liposomes were determined by dynamic light scattering using Nicomp 380 Z3000 instrument (Parficle Sizing Systems, America).
SPR analyses were performed at 25°C with a Biacore T200 instrument. For proteoliposomes and liposomes (reference), they were immobilized on a series S L1 sensor chips. It is possible that the repeated regeneration steps in the multicycle kinetics process impairs the activity of TSPO proteoliposomes, thus we were unable to use multicycle kinetics to effectively determine the affinity of TSPO and its ligands. Therefore, the single cycle kinetics, which assumes to be as robust as the classical multicycle kinetics for measuring affinity, was used. Kinetic rate constants for the various analytes were determined using single cycle protocols where five serial 2-fold dilutions of the analytes were injected for 180 s without intervening regeneration, followed by a 300 s dissociation phase after the last injection. Interactions were measured at 30 μl/min. PBS, with addition of 1% DMSO (pH 7.4), was used as running buffer. […] For mouse TSPO in a lipid-free environment, affinity was measured according to established methods with minor modifications ([Zhang et al., 2015]). […]

TSPO = molecular target: TSPO; parameters: method as in Awad and Gavish, 1987; Verma et al., 1987; details: radioligand binding experiment results from literatures, ref Awad and Gavish, 1987, Verma et al.; cited from earlier work
[2] = molecular target: T2, TSPO from rat cerebral cortex (Rattus norvegicus, UniProt P16257); experiment: 3H-PK11195 dissociation kinetics; format: binding; details: vehicle; dissociation induced by 10 μM PK11195, 4°C
T2 construct: from tissue; host or cells: rat (SD) cerebral cortex, crude mitochondrial/membrane pellet
T2 sequence (P16257 whole entry): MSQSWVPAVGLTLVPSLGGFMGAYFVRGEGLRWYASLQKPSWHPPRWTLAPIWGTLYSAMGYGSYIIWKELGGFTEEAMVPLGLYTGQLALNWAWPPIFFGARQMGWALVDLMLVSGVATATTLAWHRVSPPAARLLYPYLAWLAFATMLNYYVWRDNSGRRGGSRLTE
Protocol: Briefly, male SD rats (240 ± 10 g) were killed by decapitation, and the cerebral cortices were dissected. The tissues were homogenized in 10 volumes (ml/g) of 50 mM Tris HCl buffer containing 0.32 M sucrose (pH 7.4). The homogenates were centrifuged at 1,000 g for 10 min at 4°C. The resulting pellets were discarded, and the supernatants were centrifuged at 9,000 g for 15 min. The pellets were resuspended in 10 volumes of Tris HCl buffer containing 0.32 M sucrose (pH 7.4) and centrifuged at 13,000 g for 30 min, then resuspended in 10 volumes of Tris HCl buffer and centrifuged again at 13,000 g for 30 min. The final pellets were suspended in Tris HCl buffer and used in the binding assays. Protein concentrations were measured using the BCA Protein Assay Kit (ThermoFisher Scientific) according to the manufacturer’s instructions.
Then, samples were filtered through Filtermat A glass microfiber filters (pretreated with 0.2% polyethylenimine) using a Brandel cell harvester, and the radioactivities were measured at the indicated time points.

[3] = molecular target: T2, TSPO from rat cerebral cortex; experiment: 3H-PK11195 saturation binding; details: 0.125–32 nM, 4°C, 2 h
Protocol: After incubating at 4°C for 2 h, the reaction was terminated by the addition of ice-cold 50 mM Tris HCl buffer (pH 7.4) followed by vacuum filtration through Filtermat A glass microfiber filters (pretreated with 0.2% polyethylenimine) using a Brandel cell harvester. The filters were washed rapidly, and radioactivity was determined by liquid scintillation spectrometry.

rat C6 glioma cells = experiment: Pregnenolone production; format: cell-based; details: 2 h
[4] = system: T98G human glioblastoma cells; experiment: Cell viability assay (CellTiter Blue); format: cell-based; details: same dosing regimen as proliferation, 48 h
Protocol: T98G cells were plated and treated as in the proliferation assays. After 48 h of drug exposure, CellTiter Blue Reagent (Promega) was added to the cells and incubated for 4 h in 5% CO2 at 37°C. Absorption was measured at 570 nm using 600 nm as a reference wavelength.

[5] = system: postoperative pain model of rats; parameters: method as in Xiong et al., 2017; details: ref Xiong et al., 2017, cited from earlier work
[6] = molecular target: T3, mouse TSPO recombinant protein (Mus musculus, UniProt P50637); experiment: SPR multicycle kinetics, mouse TSPO in a lipid-free environment; format: binding; details: CM5 chip, anti-His capture, read-out: affinity to mouse TSPO
T3 construct: made in house; host or cells: Escherichia coli BL21(DE3) pLysS, pET15b vector
Protocol: as §1
SPR analyses were performed at 25°C with a Biacore T200 instrument. For proteoliposomes and liposomes (reference), they were immobilized on a series S L1 sensor chips. It is possible that the repeated regeneration steps in the multicycle kinetics process impairs the activity of TSPO proteoliposomes, thus we were unable to use multicycle kinetics to effectively determine the affinity of TSPO and its ligands. Therefore, the single cycle kinetics, which assumes to be as robust as the classical multicycle kinetics for measuring affinity, was used. Kinetic rate constants for the various analytes were determined using single cycle protocols where five serial 2-fold dilutions of the analytes were injected for 180 s without intervening regeneration, followed by a 300 s dissociation phase after the last injection. Interactions were measured at 30 μl/min. PBS, with addition of 1% DMSO (pH 7.4), was used as running buffer. Three consecutive 1 min injections with 10 μl/min of glycine HCl 3.0 at the end of each single-cycle kinetics regenerated the chip. For mouse TSPO in a lipid-free environment, affinity was measured according to established methods with minor modifications ([Zhang et al., 2015]). Briefly, HBS-EP buffer was used as the running buffer. […]

[7] = system: T98G human glioblastoma cells; experiment: Cell proliferation assay (BrdU ELISA); format: cell-based; details: 48 h
Protocol: T98G cells were plated at 1 × 10^4 cells/well in 96-well plates. […] After 48 h of drug exposure, proliferation was indexed using a BrdU ELISA Kit (Roche Molecular Diagnostics) according to the manufacturer’s protocol, and absorption was measured at 370 nm (reference wavelength 492 nm).

**Q.** With `C=CC1=C(C)c2cc3[nH]c(cc4nc(cc5[nH]c(cc1n2)c(C)c5CCC(=O)O)C(CCC(=O)O)=C4C)c(C)c3C=C` [protoporphyrin IX] as the compound, how does the Kd ([1]; SPR single-cycle kinetics, TSPO proteoliposomes on L1 chip, 25°C, Langmuir 1:1 fit, read-out: KD) read?
**A.** 0.0126 ± 0.00039 µM

**Q.** What about the Kd (TSPO) of the same compound?
**A.** 0.0145 ± 0.0107 µM

**Q.** What does the source list for `CCC(C)N(C)C(=O)c1cc2ccccc2c(-c2ccccc2Cl)n1` (stereo not drawn) [^3H-PK11195, reference compound]?
**A.** dissociation rate of 3H-PK11195 [2]: 0.0419 ± 0.0016 min⁻¹; Bmax [3]: 143.3 ± 5.4 fmol/mg protein

**Q.** With `CCC(C)N(C)C(=O)c1cc2ccccc2c(-c2ccccc2Cl)n1` (stereo not drawn) [PK11195] as the compound, how does the Kd [1] read?
**A.** 0.00197 ± 2e-05 µM

**Q.** What about the “EC20 concentration, pregnenolone production” value (rat C6 glioma cells) of the same compound?
**A.** ~27 µM

**Q.** And the “increase in pregnenolone production” value (rat C6 glioma cells; vs vehicle)?
**A.** approximately 50%

**Q.** And the EC50 (rat C6 glioma cells; Rattus norvegicus, C6 glioma, read-out: EC50, pregnenolone production)?
**A.** 69 µM

**Q.** What about the cell viability [4] of the same compound?
**A.** not significantly affected

**Q.** What about the analgesic effect ([5]; 7 μg PK11195 alone, intrathecal) of the same compound?
**A.** can also produce a certain analgesic effect

**Q.** What about the “effect on analgesic effect of intrathecal 200 μg koumine” value ([5]; intrathecal 0.7 μg PK11195 with 200 μg koumine) of the same compound?
**A.** weakened the analgesic effect

**Q.** And the analgesic effect ([5]; intrathecal injection of 0.7 μg PK11195)?
**A.** had no analgesic effect

**Q.** What about the Kd [6] of the same compound?
**A.** 161 ± 6.1 µM

**Q.** And the “EC20 concentration, inhibition of cell proliferation” value ([7]; BrdU)?
**A.** ~75 µM

**Q.** What about the EC50 ([7]; Homo sapiens, T98G, read-out: EC50, inhibition of cell proliferation) of the same compound?
**A.** 81 µM
